From the supplement of paper PMC10307832

Compound: CN1CCC(CC1)OC2=CC(=C(C=C2)NC3=NC=C4C(=N3)N(C(=O)N4C)C5CCCC5)OC [AZ3146] + Cc1nc(Nc2ncc(C(=O)Nc3c(C)cccc3Cl)s2)cc(N2CCN(CCO)CC2)n1 [Dasatinib] (partner 0.075 µM)
Test: relative viability (nuclei count vs DMSO), 5 days (fraction); higher = more cells survive
Settings: first compound 0.08 µM
Procedure, shortened: (§1)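 Lung cancer cell lines, seeded in 1536-well plates, were treated the following day by pin tool with a single drug or with five library-drug doses (not always all listed) in √10 steps on top of a fixed anchor-drug dose. Cells were fixed and nuclei stained in one step after 5 days, and nuclei were counted. Relative viability is the nuclei count for treated wells divided by that for vehicle wells, reported as medians of duplicate plates.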

Cell Line | relative viability
ChaGo-K-1 | 0.614
NCI-H1734 | 0.436
NCI-H650 | 0.351
NCI-H2228 | 0.466
HARA | 0.274
COR-L23 | 0.425
LCLC-103H | 0.532
LXF-289 | 0.276
NCI-H322M | 0.236
LC-2-ad | 0.549
HCC-827 | 0.381
CAL-12T | 0.453
HCC-15 | 0.727
HOP-62 | 0.603
NCI-H460 | 0.463
LU99A | 0.645

Cell Line | relative viability
NCI-H2085 | 0.256
A-427 | 0.561
NCI-H520 | 0.166
NCI-H838 | 0.408
NCI-H596 | 0.56
NCI-H3122 | 0.878
201T | 0.548
NCI-H1993 | 0.537
NCI-H1355 | 0.654
NCI-H2405 | 0.166
NCI-H1437 | 0.327
NCI-H661 | 0.867
COR-L 105 | 0.394
H3255 | 0.258
NCI-H2347 | 0.303

Same assay, conditions: first compound 0.253 µM

Cell Line | relative viability
ChaGo-K-1 | 0.554
NCI-H1734 | 0.461
NCI-H650 | 0.428
NCI-H2228 | 0.562
HARA | 0.211
COR-L23 | 0.527
LCLC-103H | 0.354
LXF-289 | 0.241
NCI-H322M | 0.248
LC-2-ad | 0.746
HCC-827 | 0.345
CAL-12T | 0.517
HCC-15 | 0.64
HOP-62 | 0.618
NCI-H460 | 0.485
LU99A | 0.528

Cell Line | relative viability
NCI-H2085 | 0.231
A-427 | 0.775
NCI-H520 | 0.171
NCI-H838 | 0.303
NCI-H596 | 0.582
NCI-H3122 | 0.816
BEN | 0.228
201T | 0.59
NCI-H1993 | 0.563
NCI-H1355 | 0.644
NCI-H2405 | 0.187
NCI-H1437 | 0.373
NCI-H661 | 0.859
COR-L 105 | 0.261
H3255 | 0.242
NCI-H2347 | 0.248

Same assay, conditions: first compound 0.8 µM

Cell Line | relative viability
ChaGo-K-1 | 0.512
NCI-H1734 | 0.493
NCI-H650 | 0.435
NCI-H2228 | 0.579
HARA | 0.254
COR-L23 | 0.509
LCLC-103H | 0.472
LXF-289 | 0.172
NCI-H322M | 0.24
LC-2-ad | 0.584
HCC-827 | 0.409
CAL-12T | 0.369
HCC-15 | 0.597
HOP-62 | 0.609
NCI-H460 | 0.484
LU99A | 0.464

Cell Line | relative viability
NCI-H2085 | 0.266
A-427 | 0.651
NCI-H520 | 0.197
NCI-H838 | 0.269
NCI-H596 | 0.581
NCI-H3122 | 0.859
BEN | 0.353
201T | 0.511
NCI-H1993 | 0.677
NCI-H1355 | 0.767
NCI-H2405 | 0.191
NCI-H1437 | 0.447
NCI-H661 | 0.927
COR-L 105 | 0.238
H3255 | 0.339
NCI-H2347 | 0.294

Same assay, conditions: first compound 2.53 µM

Cell Line | relative viability
ChaGo-K-1 | 0.6
NCI-H1734 | 0.484
NCI-H650 | 0.482
NCI-H2228 | 0.511
HARA | 0.217
COR-L23 | 0.457
LCLC-103H | 0.551
LXF-289 | 0.227
NCI-H322M | 0.251
LC-2-ad | 0.665
HCC-827 | 0.333
CAL-12T | 0.377
HCC-15 | 0.557
HOP-62 | 0.646
NCI-H460 | 0.463
LU99A | 0.56

Cell Line | relative viability
NCI-H2085 | 0.257
A-427 | 0.828
NCI-H520 | 0.592
NCI-H838 | 0.331
NCI-H596 | 0.636
NCI-H3122 | 0.817
BEN | 0.322
201T | 0.609
NCI-H1993 | 0.643
NCI-H1355 | 0.68
NCI-H2405 | 0.212
NCI-H1437 | 0.368
NCI-H661 | 0.765
COR-L 105 | 0.288
H3255 | 0.374
NCI-H2347 | 0.316

Same assay, conditions: first compound 8 µM

Cell Line | relative viability
ChaGo-K-1 | 0.45
NCI-H1734 | 0.394
NCI-H650 | 0.491
NCI-H2228 | 0.483
HARA | 0.302
COR-L23 | 0.313
LCLC-103H | 0.422
LXF-289 | 0.18
NCI-H322M | 0.285
LC-2-ad | 0.527
HCC-827 | 0.218
CAL-12T | 0.192
HCC-15 | 0.491
HOP-62 | 0.656
NCI-H460 | 0.476
LU99A | 0.606

Cell Line | relative viability
NCI-H2085 | 0.208
A-427 | 0.66
NCI-H520 | 0.19
NCI-H838 | 0.269
NCI-H596 | 0.538
NCI-H3122 | 0.752
BEN | 0.362
201T | 0.625
NCI-H1993 | 0.475
NCI-H1355 | 0.726
NCI-H2405 | 0.185
NCI-H1437 | 0.51
NCI-H661 | 0.459
COR-L 105 | 0.191
H3255 | 0.405
NCI-H2347 | 0.379

Compound: CN1CCC(CC1)OC2=CC(=C(C=C2)NC3=NC=C4C(=N3)N(C(=O)N4C)C5CCCC5)OC [AZ3146] + O=C(CCCCCCC(=O)Nc1ccccc1)NO [Vorinostat] (partner 1 µM)
Test: as above
Settings: first compound 0.08 µM
Procedure, shortened: as §1

Cell Line | relative viability
ChaGo-K-1 | 0.711
NCI-H1734 | 0.646
NCI-H650 | 0.237
NCI-H2228 | 0.589
HARA | 0.495
COR-L23 | 0.38
LCLC-103H | 0.51
LXF-289 | 0.752
NCI-H322M | 0.798
LC-2-ad | 0.629
HCC-827 | 0.774
CAL-12T | 0.695
HCC-15 | 0.779
HOP-62 | 0.337
NCI-H460 | 0.623
NCI-H2085 | 0.75
A-427 | 0.763
NCI-H520 | 0.588
NCI-H838 | 0.67
NCI-H596 | 0.53
NCI-H3122 | 0.92
201T | 0.948
NCI-H1993 | 0.724
NCI-H1355 | 0.517
NCI-H2405 | 0.799
NCI-H1437 | 0.774
NCI-H661 | 0.701
COR-L 105 | 0.819
H3255 | 0.737
NCI-H2347 | 0.523

Same assay, conditions: first compound 0.253 µM

Cell Line | relative viability
ChaGo-K-1 | 0.691
NCI-H1734 | 0.886
NCI-H650 | 0.374
NCI-H2228 | 0.695
HARA | 0.561
COR-L23 | 0.536
LCLC-103H | 0.726
LXF-289 | 0.827
NCI-H322M | 0.839
LC-2-ad | 0.703
HCC-827 | 0.916
CAL-12T | 0.743
HCC-15 | 0.796
HOP-62 | 0.664
NCI-H460 | 0.813
LU99A | 0.507

Cell Line | relative viability
NCI-H2085 | 0.786
A-427 | 0.881
NCI-H520 | 0.7
NCI-H838 | 0.756
NCI-H596 | 0.541
NCI-H3122 | 0.969
BEN | 0.54
201T | 0.928
NCI-H1993 | 1.03
NCI-H1355 | 0.619
NCI-H2405 | 0.969
NCI-H1437 | 0.771
NCI-H661 | 0.846
COR-L 105 | 0.887
H3255 | 0.746
NCI-H2347 | 0.562

Same assay, conditions: first compound 0.8 µM

Cell Line | relative viability
ChaGo-K-1 | 0.703
NCI-H1734 | 0.782
NCI-H650 | 0.265
NCI-H2228 | 0.874
HARA | 0.559
COR-L23 | 0.374
LCLC-103H | 0.78
LXF-289 | 0.796
NCI-H322M | 0.916
LC-2-ad | 0.69
HCC-827 | 0.641
CAL-12T | 0.832
HCC-15 | 0.885
HOP-62 | 0.598
NCI-H460 | 0.707
LU99A | 0.503

Cell Line | relative viability
NCI-H2085 | 0.779
A-427 | 0.833
NCI-H520 | 0.685
NCI-H838 | 0.69
NCI-H596 | 0.586
NCI-H3122 | 1.08
BEN | 0.608
201T | 0.917
NCI-H1993 | 1.06
NCI-H1355 | 0.69
NCI-H2405 | 1.04
NCI-H1437 | 0.842
NCI-H661 | 0.786
COR-L 105 | 0.902
H3255 | 0.856
NCI-H2347 | 0.574

Same assay, conditions: first compound 2.53 µM

Cell Line | relative viability
ChaGo-K-1 | 0.718
NCI-H1734 | 0.795
NCI-H650 | 0.447
NCI-H2228 | 0.956
HARA | 0.67
COR-L23 | 0.415
LCLC-103H | 0.844
LXF-289 | 0.872
NCI-H322M | 0.904
LC-2-ad | 0.694
HCC-827 | 0.844
CAL-12T | 0.778
HCC-15 | 0.887
HOP-62 | 0.699
NCI-H460 | 0.693
LU99A | 0.514

Cell Line | relative viability
NCI-H2085 | 0.789
A-427 | 0.809
NCI-H520 | 0.783
NCI-H838 | 0.589
NCI-H596 | 0.571
NCI-H3122 | 1.07
BEN | 0.558
201T | 1.05
NCI-H1993 | 1.05
NCI-H1355 | 0.712
NCI-H2405 | 1.14
NCI-H1437 | 0.839
NCI-H661 | 0.813
COR-L 105 | 0.879
H3255 | 0.887
NCI-H2347 | 0.717

Same assay, conditions: first compound 8 µM

Cell Line | relative viability
ChaGo-K-1 | 0.521
NCI-H1734 | 0.584
NCI-H650 | 0.4
NCI-H2228 | 0.674
HARA | 0.423
COR-L23 | 0.313
LCLC-103H | 0.711
LXF-289 | 0.587
NCI-H322M | 0.849
LC-2-ad | 0.603
HCC-827 | 0.892
CAL-12T | 0.553
HCC-15 | 0.687
HOP-62 | 0.385
NCI-H460 | 0.0632
LU99A | 0.481
NCI-H2085 | 0.701
A-427 | 0.593
NCI-H520 | 0.537
NCI-H838 | 0.308
NCI-H596 | 0.587
NCI-H3122 | 0.932
BEN | 0.588
201T | 0.894
NCI-H1993 | 0.559
NCI-H1355 | 0.622
NCI-H2405 | 0.927
